Row | Compound | melting point
1 | CCCC(CCC)C(c1ccc(OC)c(OC)c1)N1C(=O)c2ccccc2C1=O (stereo not shown) [Example 7, 1-Phthalimido-1 (3′,4′-dimethoxyphenyl)-2-propylpentane] | 100 to 101 °C
2 | COc1ccc(C(C)N2C(=O)c3ccccc3C2=O)cc1OC (stereo not shown) [Example 2, 1-Phthalimido-1-(3′,4′-dimethoxyphenyl) Ethane] | 124 to 125 °C
3 | CCC(c1ccc(OC)cc1)N1C(=O)c2ccccc2C1=O (stereo not shown) [Example 3, 1-Phthalimido-1-(4-methoxyphenyl)propane] | 85 to 86 °C
4 | COc1ccc(CN2C(=O)c3ccccc3C2=O)cc1OC [Example 4, 1-Phthalimido-1-(3′,4′-dimethoxyphenyl)methane] | 160 to 161 °C

Reference: patent US7329761B2, “Substituted imides” (Celgene Corporation, priority 1994, dated 2008)
